Measurements as given in PMC8247773, “Benzohydrazide and Phenylacetamide Scaffolds: New Putative ParE Inhibitors” (Frontiers in Bioengineering and Biotechnology, 2021).
≈ marks a conversion by molar mass, not a printed value. Like-named read-outs stand apart in the source and are kept apart here.

Experiments:
[1] = system: Escherichia coli (NCIM 2065); experiment: Antibacterial susceptibility test, microbroth dilution MIC; format: cell-based; settings: E. Coli (NCIM 2065), mean ± SD; for MIC: Escherichia coli, NCIM2065, read-out: Minimum inhibitory concentration
MRSA (NCIM 5021) [2] = experiment: as above; format: cell-based, methicillin-resistant Staphylococcus aureus; settings: mean ± SD; for MIC: Staphylococcus aureus, read-out: Minimum inhibitory concentration
MRSA (ATCC43300) [3] = experiment: as above; format: cell-based, methicillin-resistant Staphylococcus aureus; settings: mean ± SD; for MIC: Staphylococcus aureus, read-out: Minimum inhibitory concentration
[4] = system: Escherichia coli (NCIM 2065); experiment: Minimum bactericidal concentration (MBC); format: cell-based; settings: E. Coli (NCIM 2065); for MBC/MIC: ratio ≤2 bactericidal, ≥4 tolerance
Method: (§1) MBC can be defined as the minimum concentration of a compound required to kill the bacteria over a fixed period under precise conditions. […] Colonies were counted, and colony forming unit (CFU) per milliliter was calculated.

MRSA (ATCC43300) [5] = experiment: Minimum bactericidal concentration (MBC); format: cell-based, methicillin-resistant Staphylococcus aureus
Method: as §1

MRSA (NCIM 5021) [6] = experiment: Minimum bactericidal concentration (MBC); format: cell-based, methicillin-resistant Staphylococcus aureus
Method: as §1

E. coli ParE enzyme = target: T1, E. coli ParE enzyme (Escherichia coli, UniProt P20083); experiment: E. coli ParE ATPase enzyme inhibition assay (ProFoldin kit, malachite green); format: biochemical; settings: ATPase activity, mean ± SD (n = 3)
T1 construct: purchased ProFoldin, Hudson, United States
Method: The assay was performed as per the standard protocol provided by the ProFoldin. […] ParE hydrolyzes ATP as the source of molecular energy to perform decatenation reactions. Fluoroquinolones and aminocoumarins usually block ATPase activity to hinder the biological activities of topoisomerase II. Thus, the topoisomerase ATPase assay can be used for high-throughput screening of topoisomerase inhibitors. The ATPase activity of the E. coli ParE enzyme was based on the detection of inorganic phosphate produced by the hydrolysis of ATP in the presence of DNA. The phosphate is detected using a microplate reader at an absorbance wavelength of 650 nm. The selected compounds were tested for the inhibition of ATPase activity of ParE enzyme. […] The reaction mixture was incubated for 1 h at 37°C and then quenched with 45 μL of Dye. Incubate for 5 min, and the absorbance was measured at 650 nm. The IC50 values were determined from the absorbance readings using no enzyme and no compound controls. They were calculated using the non-linear regression curve fit method.

[7] = system: Klebsiella pneumonia (NCIM 2706); design: method as in Yele et al., 2020, 2021; settings: ref Yele et al., 2020, 2021; cited from earlier work
[8] = system: Pseudomonas aeruginosa (NCIM 2036); design: method as in Yele et al., 2020, 2021; settings: ref Yele et al., 2020, 2021; cited from earlier work
[9] = system: Escherichia coli (NCIM 2567); design: method as in Yele et al., 2020, 2021; settings: ref Yele et al., 2020, 2021; cited from earlier work
[10] = system: Salmonella typhi (NCIM 2501); design: method as in Yele et al., 2020, 2021; settings: ref Yele et al., 2020, 2021; cited from earlier work
[11] = system: Staphylococcus epidermis (NCIM 2493); design: method as in Yele et al., 2020, 2021; settings: ref Yele et al., 2020, 2021; cited from earlier work
[12] = system: Staphylococcus aureus (NCIM 5022); design: method as in Yele et al., 2020, 2021; settings: ref Yele et al., 2020, 2021; cited from earlier work
[13] = system: Bacillus subtilis (NCIM 2545); design: method as in Yele et al., 2020, 2021; settings: ref Yele et al., 2020, 2021; cited from earlier work
[14] = system: Mycobacterium tuberculosis (NCIM 2984); design: method as in Yele et al., 2020, 2021; settings: ref Yele et al., 2020, 2021; cited from earlier work
[15] = In vitro cytotoxicity MTT assay; settings: African green monkey, Vero cells
E. coli [16] = experiment: Checkerboard synergy with FDA approved drugs; format: cell-based, Escherichia coli
E. coli [17] = experiment: Post antibiotic effect (PAE); format: cell-based, Escherichia coli; settings: for Time for 1 log10: untreated control 2 h
[18] = system: preformed E. coli biofilm (NCIM 2065); experiment: E. coli antibiofilm activity (crystal violet); format: cell-based, Escherichia coli; settings: 10× MIC, 24 h
Vero cells [19] = system: Vero cells
Vero cells [20] = experiment: In vitro cytotoxicity MTT assay; settings: CC50 Vero cells / IC50

T1 sequence (P20083 whole entry): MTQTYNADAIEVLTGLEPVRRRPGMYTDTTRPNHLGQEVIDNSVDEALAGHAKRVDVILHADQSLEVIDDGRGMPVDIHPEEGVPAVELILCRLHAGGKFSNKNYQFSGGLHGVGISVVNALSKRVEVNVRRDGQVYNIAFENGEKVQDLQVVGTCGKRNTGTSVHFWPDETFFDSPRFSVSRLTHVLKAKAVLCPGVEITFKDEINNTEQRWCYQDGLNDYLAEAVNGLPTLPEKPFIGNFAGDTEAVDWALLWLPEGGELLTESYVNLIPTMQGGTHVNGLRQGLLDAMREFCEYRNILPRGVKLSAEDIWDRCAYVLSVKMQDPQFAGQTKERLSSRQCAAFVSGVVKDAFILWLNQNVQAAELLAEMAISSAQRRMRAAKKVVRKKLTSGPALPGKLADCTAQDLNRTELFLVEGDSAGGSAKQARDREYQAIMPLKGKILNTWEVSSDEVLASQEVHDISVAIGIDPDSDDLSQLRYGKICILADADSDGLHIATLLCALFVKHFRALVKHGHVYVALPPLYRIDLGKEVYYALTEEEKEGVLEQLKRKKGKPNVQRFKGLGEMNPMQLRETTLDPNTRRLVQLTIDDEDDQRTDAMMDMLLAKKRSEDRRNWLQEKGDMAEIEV
T1 sequence (P0AFI2 whole entry, further chain): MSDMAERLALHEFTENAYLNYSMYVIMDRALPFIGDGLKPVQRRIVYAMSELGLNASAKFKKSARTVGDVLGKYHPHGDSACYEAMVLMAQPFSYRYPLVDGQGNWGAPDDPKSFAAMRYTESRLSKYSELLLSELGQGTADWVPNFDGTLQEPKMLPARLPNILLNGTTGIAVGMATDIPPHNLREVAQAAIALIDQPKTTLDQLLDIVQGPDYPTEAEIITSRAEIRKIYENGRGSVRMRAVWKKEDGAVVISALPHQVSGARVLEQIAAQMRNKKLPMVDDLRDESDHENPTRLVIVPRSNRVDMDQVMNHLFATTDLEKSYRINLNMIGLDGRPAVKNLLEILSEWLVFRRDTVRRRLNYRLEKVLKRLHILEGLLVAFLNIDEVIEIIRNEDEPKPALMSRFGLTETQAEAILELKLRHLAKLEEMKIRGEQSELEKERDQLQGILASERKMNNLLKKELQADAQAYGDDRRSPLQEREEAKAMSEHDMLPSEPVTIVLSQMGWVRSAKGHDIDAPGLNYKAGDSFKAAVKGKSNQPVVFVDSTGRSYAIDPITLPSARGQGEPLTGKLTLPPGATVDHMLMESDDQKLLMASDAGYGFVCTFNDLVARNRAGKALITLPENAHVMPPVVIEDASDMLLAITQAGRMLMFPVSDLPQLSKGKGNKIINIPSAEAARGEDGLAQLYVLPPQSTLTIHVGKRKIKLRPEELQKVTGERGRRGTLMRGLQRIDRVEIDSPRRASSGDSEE

SMILES	Minimum inhibitory concentration [1]	Minimum inhibitory concentration (MRSA (NCIM 5021) [2])	Minimum inhibitory concentration (MRSA (ATCC43300) [3])	MBC [4]	MBC/MIC [4]	MBC (MRSA (ATCC43300) [5])	MBC/MIC (MRSA (ATCC43300) [5])	MBC (MRSA (NCIM 5021) [6])	MBC/MIC (MRSA (NCIM 5021) [6])	IC50 against E. coli ParE enzyme (E. coli ParE enzyme)	Minimum inhibitory concentration (MIC) K. p [7]	Minimum inhibitory concentration (MIC) P. a [8]	Minimum inhibitory concentration (MIC) E. c [9]	Minimum inhibitory concentration (MIC) S. t [10]	Minimum inhibitory concentration (MIC) S. e [11]	Minimum inhibitory concentration (MIC) S. a [12]	Minimum inhibitory concentration (MIC) B. s [13]	Minimum inhibitory concentration (MIC) M. t [14]	further results
Cc1ccc(C(=O)NNC(=O)COc2ccc3ccccc3c2)cc1 [Compound 22]	0.89 ± 0.01 µg/mL (≈ 2.66 µM)	0.90 ± 0.04 µg/mL (≈ 2.69 µM)	0.76 ± 0.06 µg/mL (≈ 2.27 µM)	0.89 ± 0.01 µg/mL (≈ 2.66 µM)	1	0.76 ± 0.06 µg/mL (≈ 2.27 µM)	1	0.90 ± 0.04 µg/mL (≈ 2.69 µM)	1	1.01 µg/mL (≈ 3.02 µM)	0.81	0.82	1.23	0.77	1.04	1.16	3.63	0.89	
O=C(CSc1nc2ccccc2s1)Nc1ccc(C(=O)O)cc1[N+](=O)[O-] [Compound 25]	0.72 ± 0.05 µg/mL (≈ 1.85 µM)				3				3		1.86	2.60	3.86		0.79	0.85	1.72	5.17	MIC [1]: 0.72 µg/mL (≈ 1.85 µM); MIC (MRSA (NCIM 5021) [2]): 0.86 ± 0.13 µg/mL (≈ 2.21 µM); MIC (MRSA (ATCC43300) [3]): 1.11 ± 0.12 µg/mL (≈ 2.85 µM); MBC ([4]; Escherichia coli, NCIM2065, read-out: MBC): 7.09 ± 0.02 µg/mL (≈ 18.2 µM); MBC (MRSA (NCIM 5021) [6]; Staphylococcus aureus, read-out: MBC): 8.37 ± 0.17 µg/mL (≈ 21.5 µM); IC50 (E. coli ParE enzyme; read-out: IC50 against E. coli ParE enzyme (converted)): 719 nM; CC50 at 48 h [15]: 194 µg/mL (≈ 498 µM)
O=C(O)c1cn(C2CC2)c2cc(N3CCNCC3)c(F)cc2c1=O [Ciprofloxacin]											0.63	0.67	0.97		0.74	0.68	0.81	0.60	MIC [1]: 0.62 ± 0.015 µg/mL (≈ 1.87 µM); MIC (MRSA (NCIM 5021) [2]): 0.67 ± 0.02 µg/mL (≈ 2.02 µM); MIC (MRSA (ATCC43300) [3]): 0.7 ± 0.03 µg/mL (≈ 2.11 µM); FIC B (E. coli [16]; FIC of the drug in combination with compound 5): 0.1556; FIC B (E. coli [16]; FIC of the drug in combination with compound 21): 0.1589; Inference (E. coli [16]; drug combined with compound 5): Synergistic (synergistic when the ΣFICs is ≤ 0.5); ΣFIC A + FIC B (E. coli [16]; drug combined with compound 5): 0.3162; Inference (E. coli [16]; drug combined with compound 21): Synergistic (synergistic when the ΣFICs is ≤ 0.5); ΣFIC A + FIC B (E. coli [16]; drug combined with compound 21): 0.3614; PAE = T - C (E. coli [17]; 1 × mic): 1 h; Time for 1 log10 (E. coli [17]; 1 × mic): 3 h; PAE = T - C (E. coli [17]; 10 × mic): 2 h; Time for 1 log10 (E. coli [17]; 10 × mic): 4 h; reduction in biofilm [18]: 86%
O=C(COc1ccccc1NC(=O)CCl)Nc1ccc(Cl)cc1 [Compound 2]	1.01 ± 0.19 µg/mL (≈ 2.86 µM)	2.41 ± 0.65 µg/mL (≈ 6.82 µM)	1.34 ± 0.49 µg/mL (≈ 3.79 µM)	2.00 ± 0.01 µg/mL (≈ 5.66 µM)	2	2.71 ± 0.21 µg/mL (≈ 7.67 µM)	2	4.8 ± 0.21 µg/mL (≈ 13.6 µM)	2	2.33 µg/mL (≈ 6.6 µM)	2.95	2.59	2.45	2.56	0.92	0.69	0.72	4.52	
O=C(COc1ccccc1NC(=O)CCl)Nc1ccc(C(=O)O)cc1 [Compound 3]	1.81 ± 0.15 µg/mL (≈ 4.99 µM)	1.84 ± 0.13 µg/mL (≈ 5.07 µM)	1.79 ± 0.21 µg/mL (≈ 4.93 µM)	1.75 ± 0.09 µg/mL (≈ 4.82 µM)	1	1.79 ± 0.21 µg/mL (≈ 4.93 µM)	1	1.84 ± 0.13 µg/mL (≈ 5.07 µM)	1	0.95 ± 0.09 µg/mL (≈ 2.62 µM)	0.75	0.67	0.82	1.52	3.04	4.23	6.30	2.31	CC50 (Vero cells [19]): 178.8742 µg/mL (≈ 493 µM); SI (CC50/IC50) (Vero cells [20]): 188.2886
O=C(COc1ccccc1NC(=O)CCl)Nc1ccccc1 [Compound 9]	1.64 ± 0.10 µg/mL (≈ 5.14 µM)	1.71 ± 0.16 µg/mL (≈ 5.36 µM)	1.75 ± 0.21 µg/mL (≈ 5.49 µM)	3.68 ± 0.29 µg/mL (≈ 11.5 µM)	2	6.29 ± 0.08 µg/mL (≈ 19.7 µM)	4	4.70 ± 0.41 µg/mL (≈ 14.7 µM)	3	2.80 µg/mL (≈ 8.78 µM)	3.81	3.35	4.25	2.35	0.98	1.52	4.42	8.65	
Cc1cccc([N+](=O)[O-])c1NC(=O)COc1ccccc1NC(=O)CCl [Compound 4]	2.49 ± 0.31 µg/mL (≈ 6.59 µM)	2.69 ± 0.49 µg/mL (≈ 7.12 µM)	2.52 ± 0.37 µg/mL (≈ 6.67 µM)	4.71 ± 0.03 µg/mL (≈ 12.5 µM)	2	8.76 ± 0.21 µg/mL (≈ 23.2 µM)	3	8.00 ± 0.04 µg/mL (≈ 21.2 µM)	3	0.95 µg/mL (≈ 2.51 µM)	11.90	19.90	4.45		2.05	4.12	5.97	0.75	CC50 (Vero cells [19]): 163.9911 µg/mL (≈ 434 µM); SI (CC50/IC50) (Vero cells [20]): 169.0629
Cc1ccc(C(=O)NNC(=O)COc2ccccc2NC(=O)CCl)cc1 [Compound 12]	0.86 ± 0.03 µg/mL (≈ 2.29 µM)	2.65 ± 0.46 µg/mL (≈ 7.05 µM)	0.96 ± 0.14 µg/mL (≈ 2.55 µM)	0.86 ± 0.03 µg/mL (≈ 2.29 µM)	1	0.96 ± 0.14 µg/mL (≈ 2.55 µM)	1	4.4 ± 0.15 µg/mL (≈ 11.7 µM)	2	2.34 µg/mL (≈ 6.23 µM)	0.67	1.45	1.26	1.98	2.35	3.12	3.72	3.21	
CC1(C)S[C@@H]2[C@H](NC(=O)[C@H](N)c3ccccc3)C(=O)N2[C@H]1C(=O)O [ampicillin]																			reduction in biofilm [18]: 63%
